Assay results from patent US7879876B2, “Sulfonamide derivatives and use thereof for the modulation of metalloproteinases” (Merck Serono SA, priority 2005, dated 2011).

Columns and labels:
Format in all cases: biochemical
metalloelastase (MMP-12) = metalloelastase (MMP-12) (Homo sapiens, UniProt P39900); assay: MMP-12 enzyme inhibition assay (coumarin-labelled peptide substrate); conditions: read-out: IC50 MMP12
Method in brief: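 Recombinant human MMP-12 assayed per the MMP-9 protocol: Tris-HCl pH 7.6 buffer with NaCl, CaCl2, Brij 35; McaPLGLDpaAR substrate, compounds 100 μM–5.1 nM in duplicate, 2 h at 37° C. Fluorescence read at 405 nm (320 nm excitation) without stopping; IC50 from four-parameter fit.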

MMP-14 = MMP-14 (Homo sapiens, UniProt P50281); assay: MMP-14 enzyme inhibition assay (coumarin-labelled peptide substrate); conditions: read-out: percentage inhibition MMP14
Method in brief: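 Recombinant human enzyme, APMA-activated if necessary, was incubated with McaPLGLDpaAR substrate and compound (10 concentrations in duplicate, 100 μM to 5.1 nM) in Tris-HCl pH 7.6 with NaCl, CaCl2 and Brij 35 for 2 h at 37 °C. Fluorescence was read at 320/405 nm, and IC50 was taken from a four-parameter fit.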

collagenase (MMP-1) = molecular target: T1, collagenase (MMP-1) (Homo sapiens, UniProt P03956); assay: MMP-1 enzyme inhibition assay (coumarin-labelled peptide substrate); conditions: read-out: percentage inhibition MMP1
T1 sequence (P03956 100-469): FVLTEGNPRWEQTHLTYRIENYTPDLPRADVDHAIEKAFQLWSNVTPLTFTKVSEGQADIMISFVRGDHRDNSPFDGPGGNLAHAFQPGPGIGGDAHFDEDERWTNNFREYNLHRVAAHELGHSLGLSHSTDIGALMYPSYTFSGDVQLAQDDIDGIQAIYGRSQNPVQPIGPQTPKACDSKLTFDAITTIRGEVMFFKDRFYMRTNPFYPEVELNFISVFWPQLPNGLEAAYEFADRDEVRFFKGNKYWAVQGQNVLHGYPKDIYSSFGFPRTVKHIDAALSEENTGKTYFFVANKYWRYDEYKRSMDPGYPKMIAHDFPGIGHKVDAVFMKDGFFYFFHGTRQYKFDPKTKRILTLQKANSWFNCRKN
Method in brief: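 Recombinant human MMP-1, APMA-activated if needed, in Tris-HCl pH 7.6 with NaCl, CaCl2 and 0.05% Brij 35; McaPLGLDpaAR substrate added as 8 μM solution, 2 h at 37 °C. Fluorescence (320/405 nm) read without stopping; IC50 from 10 duplicate concentrations (100 μM–5.1 nM) by four-parameter fit.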

Sequence of metalloelastase (MMP-12) (P39900 106-470): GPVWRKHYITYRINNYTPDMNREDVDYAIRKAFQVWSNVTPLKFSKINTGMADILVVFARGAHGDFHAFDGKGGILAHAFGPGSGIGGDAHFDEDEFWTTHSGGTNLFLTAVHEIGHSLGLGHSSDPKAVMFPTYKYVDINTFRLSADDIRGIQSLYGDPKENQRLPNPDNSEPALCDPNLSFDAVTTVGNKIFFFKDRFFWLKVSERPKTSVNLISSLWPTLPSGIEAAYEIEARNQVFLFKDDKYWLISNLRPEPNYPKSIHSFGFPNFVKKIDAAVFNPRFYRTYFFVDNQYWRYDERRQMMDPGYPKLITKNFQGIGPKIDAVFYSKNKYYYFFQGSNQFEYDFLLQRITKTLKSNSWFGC

IC50 (metalloelastase (MMP-12)) | inhibition at 5 µM (MMP-14) | inhibition at 0.1 µM (collagenase (MMP-1)) | inhibition at 5 µM (collagenase (MMP-1)) | inhibition at 0.1 µM (MMP-14) | SMILES
6 nM | 82% |  | 12% | 3% | CCC(CC)C(CS(=O)(=O)N1CCc2cc(Cl)c(Cl)cc2C1)N(O)C=O (stereo not shown) [Example 34, N-(1-{[(6,7-dichloro-3,4-dihydroisoquinolin-2(1H)-yl)-sulfonyl]methyl}-2-ethylbutyl)-N-hydroxyformamide]
4.2 nM | 85% |  | 6% | 7% | CCC(CC)C(CS(=O)(=O)N1CCc2cc(C(C)C)ccc2C1)N(O)C=O (stereo not shown) [Example 35, N-(2-ethyl-1-{[(6-isopropyl-3,4-dihydroisoquinolin-2(1H)-yl)sulfonyl]methyl}butyl)-N-hydroxyformamide]
5.7 nM | 75% |  | 41% | 3% | CCC(CC)C(CS(=O)(=O)N1CCc2ccc(Br)cc2C1)N(O)C=O (stereo not shown) [Example 36, N-(1-{[(7-bromo-3,4-dihydroisoquinolin-2(1H)-yl)sulfonyl]-methyl}-2-ethylbutyl)-N-hydroxyformamide]
4.2 nM | 83% |  | 36% | 8% | CCC(CC)C(CS(=O)(=O)N1CCc2cc(C(F)(F)F)ccc2C1)N(O)C=O (stereo not shown) [Example 37, N-[2-ethyl-1-({[6-(trifluoromethyl)-3,4-dihydroisoquinolin-2(1H)-yl]sulfonyl}methyl)butyl]-N-hydroxyformamide]
7.2 nM | 49% |  | 17% |  | CCC(CC)C(CS(=O)(=O)N1CCc2ccc(OC)cc2C1)N(O)C=O (stereo not shown) [Example 38, N-(2-ethyl-1-{[(7-methoxy-3,4-dihydroisoquinolin-2(1H)-yl)sulfonyl]methyl}butyl)-N-hydroxyformamide]
15 nM | 54% |  | 2% |  | CCCOc1ccc2c(c1)CN(S(=O)(=O)CC(CC(C)(C)C)N(O)C=O)CC2 (stereo not shown) [Example 40, N-(3,3-dimethyl-1-{[(7-propoxy-3,4-dihydroisoquinolin-2(1H)-yl)sulfonyl]methyl}butyl)-N-hydroxyformamide]
11 nM | 74% |  | 54% | 5% | CC(C)(C)CC(CS(=O)(=O)N1CCc2ccc(Cl)cc2C1)N(O)C=O (stereo not shown) [Example 41, N-(1-{[(7-chloro-3,4-dihydroisoquinolin-2(1H)-yl)sulfonyl]-methyl}-3,3-dimethylbutyl)-N-hydroxyformamide]
46 nM | 41% |  | 26% |  | O=CN(O)C(CCO)CS(=O)(=O)N1CCc2ccc(Cl)cc2C1 (stereo not shown) [Example 48, N-(1-{[(7-chloro-3,4-dihydroisoquinolin-2(1H)-yl)sulfonyl]-methyl}-3-hydroxypropyl)-N-hydroxyformamide]

The remaining lines, values behind:

SMILES | IC50 (metalloelastase (MMP-12)) | inhibition at 5 µM (MMP-14) | inhibition at 0.1 µM (collagenase (MMP-1)) | inhibition at 5 µM (collagenase (MMP-1)) | inhibition at 0.1 µM (MMP-14)
CC(C)(C)CC(CS(=O)(=O)N1Cc2ccc(F)cc2C1)N(O)C=O (stereo not shown) [Example 26, N-(1-{[(5-fluoro-1,3-dihydro-2H-isoindol-2-yl)sulfonyl]methyl}-3,3-dimethylbutyl)-N-hydroxyformamide] | 10 nM | 82% | 17% | 92% | 
O=CN(O)[C@H](CS(=O)(=O)N1CCc2ccc(C(F)(F)F)cc2C1)[C@H]1CCCO1 [Example 27, N-hydroxy-N-((1S)-1-[(2R)-tetrahydrofuran-2-yl]-2-{[7-(trifluoromethyl)-3,4-dihydroisoquinolin-2(1H)-yl]sulfonyl}ethyl)formamide] | 6.9 nM | 41% |  | 30% | 
CC1(C)OC[C@H](C(CS(=O)(=O)N2CCc3ccc(C(F)(F)F)cc3C2)N(O)C=O)O1 (stereo partly drawn) [Example 28, N-(1-[(4S)-2,2-dimethyl-1,3-dioxolan-4-yl]-2-{[7-(trifluoro-methyl)-3,4-dihydroisoquinolin-2(1H)-yl]sulfonyl}ethyl)-N-hydroxyformamide] | 3.9 nM | 62% |  | 18% | 
O=CN(O)[C@H](CS(=O)(=O)N1Cc2ccc(F)cc2C1)[C@H]1CCCO1 [Example 29, N-{(1S)-2-[(5-fluoro-1,3-dihydro-2H-isoindol-2-yl)-sulfonyl]-1-[(2R)-tetrahydrofuran-2-yl]ethyl}-N-hydroxyformamide] | 14 nM | 78% | 22% | 94% | 
CCC#CCC(C)(C)C(CS(=O)(=O)N1CCc2cc(C(F)(F)F)ccc2C1)N(O)C=O (stereo not shown) [Example 30, N-[2,2-dimethyl-1-({[6-(trifluoromethyl)-3,4-dihydro-isoquinolin-2(1H)-yl]sulfonyl}methyl)hept-4-yn-1-yl]-N-hydroxyformamide] | 32 nM | 38% |  | 8% | 
CC(C)(Cc1ccccc1)C(CS(=O)(=O)N1CCc2cc(C(F)(F)F)ccc2C1)N(O)C=O (stereo not shown) [Example 31, N-[2,2-dimethyl-3-phenyl-1-({[6-(trifluoromethyl)-3,4-dihydroisoquinolin-2(1H)-yl]sulfonyl}methyl)propyl]-N-hydroxyformamide] | 40 nM | 19% |  | 10% | 
O=CN(O)[C@@H](CS(=O)(=O)N1CCc2ccc(C(F)(F)F)cc2C1)[C@H]1CCCO1 [Example 32, N-hydroxy-N-((1R)-1-[(2R)-tetrahydrofuran-2-yl]-2-{[7-(trifluoromethyl)-3,4-dihydroisoquinolin-2(1H)-yl]sulfonyl}ethyl)formamide] | 168 nM | 14% |  | 4% | 
COc1ccc2c(c1)CN(S(=O)(=O)CC(CCC1CCCO1)N(O)C=O)CC2 (stereo not shown) [Example 33, N-hydroxy-N-[1-{[(7-methoxy-3,4-dihydroisoquinolin-2(1H)-yl)sulfonyl]methyl}-3-(tetrahydrofuran-2-yl)propyl]formamide] | 27 nM | 30% |  | 4% | 
CC(C)C(CS(=O)(=O)N1CCc2cc(Cl)c(Cl)cc2C1)N(O)C=O (stereo not shown) [Example 39, N-(1-{[(6,7-dichloro-3,4-dihydroisoquinolin-2(1H)-yl)-sulfonyl]methyl}-2-methylpropyl)-N-hydroxyformamide] | 4.1 nM | 87% |  | 25% | 10%
CC(C)(C)CC(CS(=O)(=O)N1CCc2cc(Cl)c(Cl)cc2C1)N(O)C=O (stereo not shown) [Example 42, N-(1-{[(6,7-dichloro-3,4-dihydroisoquinolin-2(1H)-yl)-sulfonyl]methyl}-3,3-dimethylbutyl)-N-hydroxyformamide] | 4.4 nM | 88% |  | 29% | 15%
CC(C)(C)CC(CS(=O)(=O)N1CCc2cc(C(F)(F)F)ccc2C1)N(O)C=O (stereo not shown) [Example 43, N-[3,3-dimethyl-1-({[6-(trifluoromethyl)-3,4-dihydro-isoquinolin-2(1H)-yl]sulfonyl}methyl)butyl]-N-hydroxyformamide] | 3.2 nM | 89% |  | 53% | 14%
CC(C)c1ccc2c(c1)CCN(S(=O)(=O)C[C@H]([C@H]1CCCO1)N(O)C=O)C2 [Example 45, N-hydroxy-N-{(1S)-2-[(6-isopropyl-3,4-dihydroisoquinolin-2(1H)-yl)sulfonyl]-1-[(2R)-tetrahydrofuran-2-yl]ethyl}formamide] | 1.5 nM | 92% |  | 2% | 
O=CN(O)C(CS(=O)(=O)N1CCc2cc(C(F)(F)F)ccc2C1)[C@H]1CCCO1 (stereo partly drawn) [Example 47, N-hydroxy-N-(1-[(2R)-tetrahydrofuran-2-yl]-2-{[6-(tri-fluoromethyl)-3,4-dihydroisoquinolin-2(1H)-yl]sulfonyl}ethyl)formamide] | 2.5 nM | 79% |  | 40% | 7%
O=CN(O)C(CO)CS(=O)(=O)N1CCc2cc(Cl)c(Cl)cc2C1 (stereo not shown) [Example 49, N-[2-[(6,7-dichloro-3,4-dihydroisoquinolin-2(1H)-yl)-sulfonyl]-1-(hydroxymethyl)ethyl]-N-hydroxyformamide] | 5.5 nM | 86% |  | 29% | 14%
CC(C)C(CS(=O)(=O)N1CCc2ccc(-c3ccc(F)cc3)cc2C1)N(O)C=O (stereo not shown) [Example 50, N-[1-({[7-(4-fluorophenyl)-3,4-dihydroisoquinolin-2(1H)-yl]sulfonyl}methyl)-2-methylpropyl]-N-hydroxyformamide] | 3.5 nM | 83% |  | 0% | 13%
